Test results taken from ChEMBL document CHEMBL4002618, “Anticomplement triterpenoids from the roots of Ilex asprella” (2017).
Active and inactive are the calls of the source. The rule behind the calls is not given here.

What was measured:
Erythrocyte [1] = experiment: Anticomplement activity in sheep erythrocytes assessed as inhibition of hemolysis by classical pathway after 30 mins of compound treatment in normal human serum with C1q-depleted sera; type: functional, cell-based; details: Ovis aries
Erythrocyte [2] = experiment: Anticomplement activity in sheep erythrocytes assessed as inhibition of hemolysis by classical pathway after 30 mins of compound treatment in normal human serum with C2-depleted sera; type: functional, cell-based; details: Ovis aries
Erythrocyte [3] = experiment: Anticomplement activity in sheep erythrocytes assessed as inhibition of hemolysis by classical pathway after 30 mins of compound treatment in normal human serum with C4-depleted sera; type: functional, cell-based; details: Ovis aries
Erythrocyte [4] = experiment: Anticomplement activity in sheep erythrocytes assessed as inhibition of hemolysis by classical pathway after 30 mins of compound treatment in normal human serum with C5-depleted sera; type: functional, cell-based; details: Ovis aries
Erythrocyte [5] = experiment: Anticomplement activity in sheep erythrocytes assessed as inhibition of hemolysis by classical pathway after 30 mins of compound treatment in normal human serum with C3-depleted sera; type: functional, cell-based; details: Ovis aries
Erythrocyte [6] = experiment: Anticomplement activity in sheep erythrocytes assessed as inhibition of hemolysis by classical pathway after 30 mins of compound treatment in normal human serum with C9-depleted sera; type: functional, cell-based; details: Ovis aries
Erythrocyte [7] = experiment: Anticomplement activity in New Zealand White rabbit erythrocytes assessed as concentration required for 50% hemolytic inhibition by alternative pathway preincubated for 10 mins with normal human serum followed by erythrocyte addition measured after 30 mins by spectrophotometer; type: functional, Oryctolagus cuniculus
Erythrocyte [8] = experiment: Anticomplement activity in sheep erythrocytes assessed as concentration required for 50% hemolytic inhibition by classic pathway preincubated for 10 mins with guinea pig serum followed by erythrocyte addition measured after 30 mins by spectrophotometer; type: functional, Ovis aries

Compound | Activity (Erythrocyte [1]) | Activity (Erythrocyte [2]) | Activity (Erythrocyte [3]) | Activity (Erythrocyte [4]) | Activity (Erythrocyte [5]) | Activity (Erythrocyte [6]) | Activity (Erythrocyte [7]) [mg/mL] | Activity (Erythrocyte [8]) [mg/mL]
CC1(C)CC[C@]2(C(=O)O)CC[C@]3(COC(=O)/C=C/c4ccc(O)cc4)C(=CC[C@@H]4[C@@]5(C)CC[C@H](OC(=O)/C=C/c6ccc(O)cc6)C(C)(C)[C@@H]5CC[C@]43C)[C@@H]2C1 | Active | inactive | Active | Active | Active | inactive | 0.159 | 0.072
C=C1[C@@H](O)[C@H](O)C[C@]2(C)[C@H]3CC=C4[C@@H]5CC(C)(C)CC[C@]5(C(=O)O)CC[C@@]4(C)[C@]3(C)CC[C@@H]12 | Active | Active |  |  |  | Active | 0.308 | 0.09
